According to US9187426B2, “Organic compounds” (Novartis AG, priority 2008, dated 2015):

Columns and labels:
[1] = molecular target: T1, Stearoyl-CoA Desaturase (SCD1) (Mus musculus, UniProt P13516); test: SCD microsomal assay: release of 3H2O from [9,10-3H]stearoyl-CoA in mouse liver microsomes; format: biochemical; settings: 15 min incubation, 25° C.
T1 construct: Reactions are started by adding 50 μL of microsomes (1.25 mg/mL); from tissue; host or cells: liver microsomes of male ICR outbred mice on a high-carbohydrate, low-fat diet
T1 sequence (P13516 1-355): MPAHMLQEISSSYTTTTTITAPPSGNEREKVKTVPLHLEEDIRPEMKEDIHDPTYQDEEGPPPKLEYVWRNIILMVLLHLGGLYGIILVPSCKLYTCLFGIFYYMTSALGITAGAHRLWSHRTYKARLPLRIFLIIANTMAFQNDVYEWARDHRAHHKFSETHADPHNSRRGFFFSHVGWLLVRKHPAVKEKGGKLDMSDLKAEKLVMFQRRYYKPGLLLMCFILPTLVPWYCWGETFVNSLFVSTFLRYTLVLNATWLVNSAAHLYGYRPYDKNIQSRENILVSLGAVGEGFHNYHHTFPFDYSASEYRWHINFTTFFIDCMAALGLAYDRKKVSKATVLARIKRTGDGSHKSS
Text: Measuring Stearoyl-CoA Desaturase Inhibition Activity of a Test Compound Using Mouse Liver Microsomes
The identification of compounds of the invention as SCD inhibitors was readily accomplished using the SCD microsomal assay procedure described in Shanklin J. and Summerville C., Proc. Natl. Acad. Sci. USA (1991), Vol. 88, pp. 2510-2514.
Male ICR outbread mice, on a high-carbohydrate, low fat diet, under light halothane (15% in mineral oil) anesthesia are sacrificed by exsanguination during periods of high enzyme activity. Livers are immediately rinsed with cold 0.9% NaCl solution, weighed and minced with scissors. All procedures are performed at 4° C. unless specified otherwise. Livers are homogenized in a solution (1/3 w/v) containing 0.25 M sucrose, 62 mM potassium phosphate buffer (pH 7.0), 0.15 M KCl, 15 mM N-acetyleysteine, 5 mM MgCl2, and 0.1 mM EDTA using 4 strokes of a Potter-Elvehjem tissue homogenizer. The homogenate is centrifuged at 10,400×g for 20 min to eliminate mitochondria and cellular debris. The supernatant is filtered through a 3-layer cheesecloth and centrifuged at 105,000×g for 60 min. The microsomal pellet is gently resuspended in the same homogenization solution with a small glass/teflon homogenizer and stored at −70° C. The absence of mitochondrial contamination is enzymatically assessed. The protein concentration is measured using bovine serum albumin as the standard.
Desaturase activity is measured as the release of ^3H2O from [9,10-^3H]stearoyl-CoA. Reactions per assay point conditions are as follows: 2 μL 1.5 mM stearoyl-CoA, 0.25 μL 1 mCi/mL ^3H stearoyl CoA, 10 μL 20 mM NADH, 36.75 μL 0.1 M PK buffer (K2HPO4/NaH2PO4, pH 7.2). The test compound or control solution is added in a 1 μL volume. Reactions are started by adding 50 μL of microsomes (1.25 mg/mL). The plates are mixed and after 15 min incubation on a heating block (25° C.), the reactions are stopped by the addition of 10 μL 60% PCA. An aliquot of 100 μL is then transferred to a filter plate pretreated with charcoal and the plate centrifuged at 4000 rpm for 1 minute. The flow through containing the ^3H2O released by the SCD1 desaturation reaction is added to scintillation fluid and the radioactivity measured in a Packard TopCount. The data is analysed to identify the IC50 for test compounds and reference compounds.

| Structure (SMILES) | IC50 [1] [nM] | melting point [°C] |
| --- | --- | --- |
| O=C(NCc1cncs1)c1ccnc(N2CCN(Cc3ccc(C(F)(F)F)cc3)C2=O)c1 [Example 26.19, 2-(2-Oxo-3-(4-(trifluoromethyl)benzyl)imidazolidin-1-yl)-N-(thiazol-5-ylmethyl)-isonicotinamide] | 10 | 163 to 165 |
| Cc1cc(CNC(=O)c2ccnc(-n3cnn(Cc4ccc(F)cc4)c3=O)c2)no1 [Example 26.22, 2-(1-(4-Fluorobenzyl)-5-oxo-1H-1,2,4-triazol-4(5H)-yl)-N-((5-methylisoxazol-3-yl)methyl)-isonicotinamide] | 10 | 198 to 200 |
| Cc1cc(CNC(=O)c2ccnc(N3CCN(Cc4ccc(F)c(F)c4)C3=O)c2)no1 [Example 26.23, 2-(3-(3,4-Difluorobenzyl)-2-oxoimidazolidin-1-yl)-N-((5-methylisoxazol-3-yl)methyl)-isonicotinamide] | 10 | 153 to 155 |
| O=C(NCc1ccccn1)c1ccnc(-n2cnn(Cc3ccc(F)cc3)c2=O)c1 [Example 26.27, 2-(1-(4-Fluorobenzyl)-5-oxo-1H-1,2,4-triazol-4(5H)-yl)-N-(pyridin-2-ylmethyl)-isonicotinamide] | 120 | 181 to 183 |
| NC(=O)c1ccnc(N2CCN(Cc3ccc(F)c(F)c3)C2=O)c1 [Example 26.30, 2-(3-(3,4-Difluorobenzyl)-2-oxoimidazolidin-1-yl)isonicotinamide] | 1100 | 195 to 198 |
| NC(=O)c1ccnc(N2CCN(Cc3ccc(C(F)(F)F)cc3)C2=O)c1 [Example 26.31, 2-(2-Oxo-3-(4-(Trifluoromethyl)-benzyl)imidazolidin-1-yl)isonicotinamide] | 180 | 167 to 169 |
| NC(=O)c1ccnc(N2CCN(Cc3ccc(OC(F)(F)F)cc3)C2=O)c1 [Example 26.32, 2-(2-Oxo-3-(4-(trifluoromethoxy)-benzyl)imidazolidin-1-yl)isonicotinamide] | 1200 | 175 to 176 |
